Assay results from patent US5175166A, “Muscarinic agonists” (The University of Toledo, priority 1991, dated 1992).
Where a name gives a salt, the structure may show the parent alone.

Experiments:
M1 receptors [1] = assay: Phosphoinositide turnover in the hippocampus (brain slices); assay type: cell-based, Male Long Evans rats; conditions: Rattus norvegicus, read-out: Phosphoinositide turnover in the hippocampus, maximal % response above baseline; for activation at 100 µM / activation at 50 µM: hippocampus
Method: The slices were gently agitated at 37° C. in a shaking water bath for 45 min with three changes to buffer. […] The samples were mixed with vigorous shaking and spun at 1000×g for 10 min to separate organic and aqueous phases. […] Briefly, […] anion-exchange SEP-PAK's (Waters Associates) cartridges were converted into the formate form by washing first with 10 ml of a solution of 1.0 M-ammonium formate in 0.1 M-formic acid, followed by 20 ml of distilled water. The sample loading and solution delivery were performed by using disposable plastic syringes; an approximate flow rate of 10-15 ml/min was maintained. […] The entire amount was loaded on to the […] anion-exchange SEP-PAK cartridge. […] Phosphoinositide turnover in the hippocampus indicates a biological response in an area of the brain where M1 receptors predominate. Higher numbers indicate greater efficacy and selectivity at M1 receptors.

[2] = test system: muscarinic receptors linked to M1, M3, M5 receptors; assay: PI Cortex: phosphoinositide turnover in the cortex (brain slices); assay type: cell-based, Male Long Evans rats; conditions: Rattus norvegicus, read-out: PI Cortex, maximal % response above baseline
Method: Male Long Evans rats (200-300 g) were decapitated and their brains were rapidly removed and dissected according to the method of Glowinski and Iversen. […] The slices were gently agitated at 37° C. in a shaking water bath for 45 min with three changes to buffer.
Immediately before each experiment, [^3 H] inositol was purified by drying under Nz and passing a portion through a 1-ml column of Dowex AGl-X8 (formate form) to remove contaminants. […] Aliquots (25 microliters) of tissue slices were pipetted into flat-bottomed Beckman-biovials (5-ml capacity) containing 0.3 mM [^3 H]-inositol (15 Ci/mmol) and 10 mM LiCl in 245 microliters of buffer. The vials were then gassed, capped and incubated at 37° C. in a shaking water bath for 30 min. At the end of 30 min, agonist (or buffer for the determination of basal levels) was then added (30 microliters), and the incubation continued for an additional 45 min. The 45 -min incubation period was selected on the basis of the time course of labeled inositol phosphates ([^3 H]-IP's) accumulation under these conditions. The incubations were stopped by the addition of 0.94 ml of CHCl3 /MeOH (1:2, V/V) followed by 0.31 ml of CHCl3 and 0.31 ml of H2 O. The samples were mixed with vigorous shaking and spun at 1000×g for 10 min to separate organic and aqueous phases. Aliquots (750 microliter) of the upper aqueous phase were removed for determination of [^3 H]-IP's. In some cases 200 ml aliquots of the organic phase were removed, dried overnight and counted in 5 ml of scintillant (Amersham) for determination of [^3 H]-inositol incorporation into phospholipids.
Briefly, ACCELL QMA anion-exchange SEP-PAK's (Waters Associates) cartridges were converted into the formate form by washing first with 10 ml of a solution of 1.0 M-ammonium formate in 0.1 M-formic acid, followed by 20 ml of distilled water. The sample loading and solution delivery were performed by using disposable plastic syringes; an approximate flow rate of 10-15 ml/min was maintained. Total [^3 H]-IP's were determined by the "batch" method in which 750 microliter aliquots of the aqueous phase obtained as described above was diluted to 3 ml with distilled water. The entire amount was loaded on to the ACCELL QMA anion-exchange SEP-PAK cartridge. The cartridge was then washed with 10 ml of distilled water, followed by 5 mM-disodium tetraborate. Radiolabeled IP's were then eluted with 1 ml of 0.6 M-ammonium formate/0.06 M formic acid/5 mM-disodium tetraborate (pH 4.75) and 0.50 ml of this eluate was counted in 5 ml of aqueous counting scintillant.

muscarinic receptors [3] = assay: Binding, competition with 3H-oxotremorine M (3H-OXO-M), agonist binding (rat brain membranes); conditions: 3 nM 3H-oxotremorine M, 15 minutes room temperature, mean of three experiments
Method: (§1) Other binding was determined indirectly by the ability of compounds to compete with 1 nM ^3 H-pirenzepine (^3 H--PZ), or 3 nM ^3 H-oxotremorine M (^3 H--OXO--M) in a suspension of brain membranes. Each sample contained approximately 0.1 mg/ml protein for ^3 H--OXO--M in 20 mM Tris-Cl buffer with 1 mM MnCl2 and varying concentrations of compound in a final volume of […]. Samples were incubated 1 hr. for ^3 H--PZ, and 15 minutes for ^3 H--OXO--M at room temperature and then filtered through glass fiber filters using a Brandell cell harvester adapted for receptor binding work and the filters were washed twice with two 5-ml portions of cold buffer. Nonspecific binding was evaluated by the inclusion of excess atropine in a separate set of samples. IC50 values were determined from Hill plots of the inhibition data and are reported as means of three independent experiments each performed in triplicate.
(§2) Rats were killed by cervical dislocation and their brains rapidly removed. Tissue was homogenized in 9 vol. (w/v) of a 40 mM sodium-potassium phosphate buffer solution (pH 7.4) buffer solution with a Brinkman Polytron homogenizer five times for 10 sec at 5 sec intervals. The crude homogenate was subjected to centrifugation for 10 min at 1000×g, the supernatant saved, and the pellet resuspended in 9 vol. (w/v) of homogenization buffer and spun for another 10 min at 1000×g. The supernatants were combined and spun again for 30 min at 17,500×g. The resultant pellet was resuspended by homogenization in a Teflon-glass homogenizer in 10 vol. of buffer, and washed by centrifugation at 17,500×g for 30 min. The final pellet was resuspended by hand homogenization with a Teflon and glass homogenizer in buffer. The suspension was then divided into several portions and stored at -70° C.
(§3) In the table, ^3 H-QNB indicates general binding to muscarinic receptors and the lower the number, the higher is the potency. ^3 H-PZ indicates binding to muscarinic receptors and a preference for M1 receptors involved in memory and cognition. The lower the number for ^3 H-PZ the higher the potencies; the same is true for ^3 H--OXO--M which indicates agonist binding. In general, the higher the ratio of the value for ^3 H--PZ to the value for ^3 H--OXO--M the better is the agonistic characteristic.

muscarinic receptors [4] = assay: Binding to muscarinic receptors, competition with [3H]-QNB (rat brain membranes); conditions: for IC50: 50 pM [3H]-QNB, rat brain membranes, pH 7.4, 2.0 hr room temperature, mean of three experiments; for binding to muscarinic receptors (in words): qualitative statement
M1 receptors [5] = target: T1, M1 receptors (Rattus norvegicus, UniProt P08482); assay: Binding, competition with 3H-pirenzepine (3H-PZ) (rat brain membranes); conditions: 1 nM 3H-pirenzepine, 1 hr room temperature, mean of three experiments
T1 sequence (P08482 1-460): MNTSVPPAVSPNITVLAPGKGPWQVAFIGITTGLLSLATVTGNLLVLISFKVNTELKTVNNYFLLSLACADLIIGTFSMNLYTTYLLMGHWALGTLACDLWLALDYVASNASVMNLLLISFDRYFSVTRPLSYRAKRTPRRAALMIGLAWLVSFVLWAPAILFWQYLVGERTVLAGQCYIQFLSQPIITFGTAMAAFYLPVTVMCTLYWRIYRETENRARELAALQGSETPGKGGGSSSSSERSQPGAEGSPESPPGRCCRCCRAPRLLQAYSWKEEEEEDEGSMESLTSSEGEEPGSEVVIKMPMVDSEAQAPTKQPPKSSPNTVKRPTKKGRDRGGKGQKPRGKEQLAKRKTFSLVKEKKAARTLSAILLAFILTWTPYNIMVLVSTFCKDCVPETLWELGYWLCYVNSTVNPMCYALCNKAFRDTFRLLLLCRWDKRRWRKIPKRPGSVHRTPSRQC
Method: as §1, §2, §3

muscarinic receptors [6] = assay: Phosphoinositide (PI) response / inositol phosphate formation in brain slices (region not stated); assay type: cell-based, Male Long Evans rats; conditions: qualitative statement
Method: The slices were gently agitated at 37° C. in a shaking water bath for 45 min with three changes to buffer.
The sample loading and solution delivery were performed by using disposable plastic syringes; an approximate flow rate of 10-15 ml/min was maintained.

SMILES | IC50 (muscarinic receptors [3]) [µM] | IC50 (muscarinic receptors [4]) [µM] | IC50 (M1 receptors [5]) [µM] | activation at 1000 µM (M1 receptors [1]) [%] | activation at 100 µM [2] [%] | activation at 100 µM (M1 receptors [1]) [%] | binding to muscarinic receptors (in words) (muscarinic receptors [4]) | PI response (in words) (muscarinic receptors [6]) | activation at 1000 µM ([2]; dose 1 mM) [%] | activation at 50 µM (M1 receptors [1]) [%]
COC(=O)C1CN=CNC1 (centres unmarked) [Example 1, 1,4,5,6-Tetrahydro-5-methoxycarbonylpyrimidine Hydrobromide] | 0.09 | – | – | 237 | 131 | – | – | – | – | –
CCCOC(=O)C1CN=CNC1 (centres unmarked) [Example 3, n-Propyl 1,4,5,6-Tetrahydropyrimidine-5-carboxylate Hydrochloride] | 1.08 | 2.1 | 1.33 | – | 7.1 | – | – | – | – | –
CC(C)OC(=O)C1CN=CNC1 (centres unmarked) [Example 4, Isopropyl 1,4,5,6-Tetrahydropyrimidine-5-carboxylate Hydrochloride] | 1.76 | 3.5 | – | – | 7.2 | – | – | – | – | –
O=C(OCc1ccccc1)C1CN=CNC1 (centres unmarked) [Example 5, Benzyl 1,4,5,6-Tetrahydropyrimidine-5-carboxylate Hydrochloride] | 1.09 | ~1 | 1.27 | – | 3.5 | – | – | – | – | –
C#CCOC(=O)C1CN=CNC1 (centres unmarked) [Example 6, Propynyl 1,4,5,6-Tetrahydropyrimidine-5-carboxylate Hydrochloride] | – | 1.9 | – | – | 230 | – | – | – | – | –
Cc1noc(C2CN=CNC2)n1 (centres unmarked) [Example 9, 1,4,5,6-Tetrahydro-5-(3-methyl-1,2,4-oxadiazol-5-yl)pyrimidine trifluoroacetate] | 0.026 | 2 | – | – | 700 | 704 | – | – | – | –
CC(=O)OC1CN=CNC1.Cl (centres unmarked) [Example 10, 5-Acetoxy-1,4,5,6-tetrahydropyrimidine HCl] | 0.64 | 31.6 | 10 | – | – | 70 | acceptable binding data | efficacious with respect to the PI response | – | –
COC(=O)C1=CNCN(C)C1 [Example 11, 1-Methyl-5-methoxycarbonyl-1,2,3,6-tetrahydropyrimidine HCl] | 2.4 | 25.1 | 15 | – | – | – | – | – | 182 | –
CC(=O)OC1CN=C(C(F)(F)F)NC1.Cl (centres unmarked) [Example 18, 5-Acetoxy-2-trifluoromethyl-1,4,5,6-tetrahydropyrimidine HCl] | > 10 | 8.7 | > 10 | – | – | – | – | no PI response | – | 0
CC(=O)OC1CN=C(C)NC1 (centres unmarked) [Example 19, 2-methyl-5-acetoxy-1,4,5,6-tetrahydropyrimidine] | > 10 | 100 | > 10 | – | – | – | extremely poor binding to muscarinic receptors | virtually no PI response | – | 0

Now from value to molecule, other results behind:

IC50 (muscarinic receptors [3]) [µM] | IC50 (muscarinic receptors [4]) [µM] | IC50 (M1 receptors [5]) [µM] | SMILES | activation at 1000 µM (M1 receptors [1]) [%] | activation at 100 µM [2] [%] | activation at 100 µM (M1 receptors [1]) [%] | binding to muscarinic receptors (in words) (muscarinic receptors [4]) | PI response (in words) (muscarinic receptors [6]) | activation at 1000 µM ([2]; dose 1 mM) [%] | activation at 50 µM (M1 receptors [1]) [%]
0.16 | 1.9 | – | CCOC(=O)C1CN=CNC1 (centres unmarked) [Example 2, 1,4,5,6-Tetrahydro-5-ethoxycarbonylpyrimidine Hydrochloride] | – | 150 | – | – | – | – | –
0.114 | 7.3 | 0.77 | COC(=O)C1CCC(N)=NC1.Cl (centres unmarked) [Example 14, 2-Amino-5-methoxycarbonyl-3,4,5,6-tetrahydropyridine HCl] | – | 265 | – | – | unexpectedly superior PI response | – | –
> 10 | 83 | 13 | COC(=O)C1CCCN=C1N (centres unmarked) [Example 15, 2-amino-3-methoxycarbonyl-3,4,5,6-tetrahydropyridine HCl] | – | -5.5 | – | – | – | – | –
– | 130 | – | COC(=O)C1CCN=C(N)C1 (centres unmarked) [Example 16, 2-Amino-4-methoxycarbonyl-3,4,5,6-tetrahydropyridine HCL] | – | 9 | – | – | – | – | –
> 10 | 130 | > 10 | COC(=O)C1CCCC(N)=N1 (centres unmarked) [Example 17, 2-Amino-6-methoxycarbonyl-3,4,5,6-tetrahydropyridine HCL] | – | 5.9 | – | – | – | – | –
